Results as given in patent US20230183798A1, “COMPOSITIONS AND METHODS FOR MODIFYING POLYMERASE-NUCLEIC ACID COMPLEXES” (Pacific Biosciences of California, Inc., priority 2020, published 2023).

What was measured:
[1] = test system: polymerase-nucleic acid complexes (ternary complexes); assay: Stripping nucleotides from ternary complexes: crosstalk metrics after NSB wash in 2x2 examination sequencing; type: biochemical; details: for Capability of stripping nucleotides from ternary complexes while retaining polymerase on primed-template nucleic acid: candidate in NSB; for Overall performance of NSB having candidate vs NSB having isopropanol: vs 20% v/v isopropanol (SOP) NSB; for A_T crosstalk (Cy5-dATP carryover from first exam into second exam) compared to NSB having isopropanol / C_G crosstalk (carryover of C signal from first exam into G channel of second exam) compared to NSB having isopropanol: alternating cycles vs 20% v/v isopropanol (SOP); for Concentration range in NSB found effective: other concentrations tested in addition to Table 1
Experimental: Template nucleic acid strands synthesized in 12 PCR reactions were prepared, and then independently bound to beads. […] Beads harboring immobilized template strands were then attached to the inner surface of a flow cell. Sequencing was performed for 22 cycles, where each cycle included subroutines for (i) Extension: adding a reversibly terminated nucleotide to primers that were hybridized to the immobilized templates, (ii) Examination: forming and detecting stabilized ternary complexes on the reversibly terminated, immobilized primer-template hybrids, and (iii) Activation: cleaving the reversible terminator from the extended primers.
The Examination subroutine was performed in a 2×2 format as diagrammed in FIG. 1. Specifically, a mixture of Cy5 labelled dATP, Cy7 labelled dCTP, unlabeled dTTP and unlabeled dGTP was delivered to the flow cell that contained polymerase-nucleic acid complexes on the beads, the system paused fluid flow to allow nucleotides to bind at cognate positions of the templates, thereby forming ternary complexes. Free nucleotide was removed from the flow cell by flowing IMG reagent. […] The flow cell was then imaged via fluorescence microscopy to detect ternary complexes that contained a labeled nucleotide that was a cognate for the next correct nucleotide in each of the template nucleic acids. The flow cell was then washed with NSB solutions having various compositions as set forth below. After the NSB wash, a mixture of Cy5 labelled dTTP, Cy7 labelled dGTP, unlabeled dCTP and unlabeled dATP was delivered to the flow cell, and the system paused fluid flow to allow nucleotides to bind, thereby forming ternary complexes. Free nucleotide was removed by flowing IMG reagent and then the flow cell was again imaged.
The concentrations are provided as a percentage in weight of compound per total volume of NSB (w/v) or volume of compound per total volume of NSB (v/v). The concentration can also be expressed as a molar concentration and this can be helpful, for example, as a way to compare the amounts of each compound tested. […] The molar concentrations of 1,5 pentanediol, propylene glycol, hexylene glycol, sulfolane, DMSO, ethyl methyl sulfone and 2-mthoxy ethanol in NSB were similar to the molar concentration of isopropanol in the SOP NSB.
The effectiveness of each candidate compound was determined from the following crosstalk metrics. The A_T crosstalk metric indicates how much Cy5-dATP is carried over from the first exam such that it is detected in the second exam. Similarly, the C_G crosstalk metric indicates how much Cy7-dCTP is carried over from the first exam such that it is detected in the second exam. A lower value for the crosstalk metric indicates less carryover and is correlated with improved sequencing results. On the other hand, a higher value for the crosstalk metric indicates more carryover and lower quality sequencing results.
Results were evaluated as a comparison of crosstalk metrics measured for NSB having 20% v/v/isopropanol (SOP) compared to the crosstalk metric measured for NSB having each of the respective candidate compounds. In all cases, the comparisons were based on data obtained for sequencing runs performed in a single lane of a flow cell. The format of the run was as follows: Cycle_1(SOP)=>Cycle_2(candidate)=>Cycle_3(SOP)=>Cycle_4(candidate) and so on. The crosstalk metric was determined separately for the SOP and candidate cycles, respectively. This format was used to minimize the confounding influence of run-to-run variations when comparing between SOP and each candidate.

[2] = Solubility of candidate compound in NSB; type: physicochemical; details: NSB solution
[3] = Stability of NSB fluid foam in a flow cell; type: physicochemical; details: 28% 1,6 hexanediol or 20% isopropanol, 55° C., images before and after 1 minute pause in flow
Experimental: NSB fluid foam having 20% isopropanol (SOP) or 28% 1,6 hexanediol was flowed through a flow cell (40 μl/s flow rate, 300 μl volume, 35 psi positive pressure, 55° C.). The flow was paused and a first image of the foam was acquired immediately. The foam was allowed to sit for 60 seconds and then a second image was taken.

[4] = NSB with candidate at Table 1 concentration, lower = less carryover

Compound	Capability of stripping nucleotides from ternary complexes while retaining polymerase on primed-template nucleic acid [1]	Overall performance of NSB having candidate vs NSB having isopropanol [1]	A_T crosstalk (Cy5-dATP carryover from first exam into second exam) compared to NSB having isopropanol [1, 4]	C_G crosstalk (carryover of C signal from first exam into G channel of second exam) compared to NSB having isopropanol [1, 4]	Concentration range in NSB found effective [1]	other results
CC(O)CO (stereo not drawn) [Propylene glycol]	capable of stripping nucleotides from ternary complexes while retaining polymerase association with primed-template nucleic acid	did not perform as well as isopropanol	–	–	–	–
OCCCCCO [1,5 pentanediol]	–	–	stronger	stronger	–	A_T crosstalk metric [1, 4]: about 0.16; C_G crosstalk metric [1, 4]: about 0.16
hexylene glycol	capable of stripping nucleotides from ternary complexes while retaining polymerase association with primed-template nucleic acid	did not perform as well as isopropanol	–	–	–	–
OCCCCCCCCO [1,8 octanediol]	–	–	–	–	–	Solubility in NSB [2]: not immediately soluble
C[S+](C)[O-] [DMSO, dimethyl sulfoxide]	–	–	stronger	–	21-26%	A_T crosstalk metric [1, 4]: below 0.35
CC(O)CCO (stereo not drawn) [1,3 butanediol]	capable of stripping nucleotides from ternary complexes while retaining polymerase association with primed-template nucleic acid	did not perform as well as isopropanol	–	–	–	–
NCCCO [3-Amino-1-propanol]	can also be useful	–	–	–	–	–
CC(C)O [Isopropanol, reference compound]	–	–	–	–	16-20%	Foam stability [3]: foam can be maintained to some degree
CCS(C)(=O)=O [ethyl methyl sulfone]	–	–	stronger	–	1.4-2.8%	A_T crosstalk metric [1, 4]: below 0.2
OCCCCCCCO [1,7 heptanediol]	–	outperformed NSB having isopropanol	better	better	–	–
O=S1(=O)CCCC1 [sulfolane]	–	outperformed NSB having isopropanol	comparable	better	–	–
COCCO [2-methoxy ethanol]	can also be useful	–	–	–	–	–
OCCCCCCO [1,6 hexanediol]	–	outperformed NSB having isopropanol	modestly lower	significantly lower	10-31%	Foam stability [3]: greater foam stability; Flammability (Flammability): non-flammable
